Test results published in patent US20200216863A1, “Use of renewable deep eutectic solvents in a one-pot process for a biomass” (National Technology & Engineering Solutions of Sandia, LLC, priority 2019, published 2020).

Tests used:
yeast = conditions: cited from earlier work
[1] = system: unmodified control strain; format: cell-based, yeast
Experimental: (§1) The effect of DES-Ch12 supplementation on growth and carbon utilization of JBEI-9009 was analyzed in a plate reader-based assay. […] To test if the presence of DES-Ch12 in the media impairs the ability of the strain JBEI-9009 to efficiently utilize xylose, the strain was cultivated in CSM media with 2 wt % xylose containing 10 wt % Ch12 and final samples were taken for HPLC measurements.

yeast strain JBEI-9009 = format: cell-based
Experimental: Next, in order to test the feasibility of C5/C6 sugar cofermentation and thus to further improve the economic feasibility of the process,(22) the yeast strain JBEI-9009, developed in our lab for optimized xylose consumption,(30) was used for further experiments.
as §1

## O=C(O)/C=C/c1ccc(O)cc1 [p-coumaric acid]
yeast
  concentration required for inhibition of yeast growth: ~1000 µM

## O=Cc1ccc(CO)o1 [HMF, hydroxymethylfurfural]
yeast
  concentration with significant inhibition of yeast growth: 3000 µg/mL
  ethanol yield in presence of inhibitor: 89%

## O=C(O)c1ccccc1 [Benzoic acid]
yeast
  concentration required for inhibition of yeast growth: ~1000 µM

## [Ch][Cl]-2glycerol [Ch12]
[1]
  growth tolerance: without showing significant growth limitations
Yeast strain JBEI-9009
  growth tolerance: without showing significant growth limitations
  lag phase: longer lag phase
